From patent US8486931B2, “Substituted oxindole compounds” (Abbott GmbH & Co. KG, priority 2007, dated 2013)

target: T1, human vasopressin V1b receptor (Homo sapiens, UniProt P47901); test: Vasopressin V1b receptor binding assay; details: membranes from CHO-K1 cells with stably expressed human V1b receptors, 1.5 nM 3H-AVP displacement; with more than one stereogenic center: the diastereomer with stronger affinity
T1 construct: expressed in transfected cells; host or cells: CHO-K1 (cell line hV1b-3H2_CHO), membrane preparation
T1 sequence (P47901 1-424): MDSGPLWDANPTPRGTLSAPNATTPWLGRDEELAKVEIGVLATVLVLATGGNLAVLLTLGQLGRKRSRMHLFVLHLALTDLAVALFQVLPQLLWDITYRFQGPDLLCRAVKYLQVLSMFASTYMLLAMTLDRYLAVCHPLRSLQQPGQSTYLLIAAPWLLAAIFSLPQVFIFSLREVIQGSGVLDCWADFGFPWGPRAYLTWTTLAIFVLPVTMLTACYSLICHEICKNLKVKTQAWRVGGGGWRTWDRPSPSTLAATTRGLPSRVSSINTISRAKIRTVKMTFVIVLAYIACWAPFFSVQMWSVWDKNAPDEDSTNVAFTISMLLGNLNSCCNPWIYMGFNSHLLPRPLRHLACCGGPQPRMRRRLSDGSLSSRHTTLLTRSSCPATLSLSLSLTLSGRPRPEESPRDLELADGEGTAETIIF
How it was run: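 Membranes bearing human V1b receptor incubated 60 min at room temperature in 50 mM Tris, 10 mM MgCl2, 0.1% BSA, pH 7.4, 2% DMSO, triplicate.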

Row | Ki | Molecule
1 | < 10 nM | CCOc1ccc(OC)cc1C1(N2CCN(C3CCNCC3)CC2)C(=O)N(S(=O)(=O)c2ccc(OC)cn2)c2ccc(C#N)cc21 (single isomer, unassigned; (+)) [Example 140, (+)-5-Cyano-3-(2-ethoxy-5-methoxy-phenyl)-1-(5-methoxy-pyridine-2-sulfonyl)-3-(4-piperidin-4-yl-piperazin-1-yl)-2,3-dihydro-1H-indol-2-one]
2 | 10 to 50 nM | CCOc1ccc(OC)cc1C1(N2CCN(C3CCN(C)CC3)CC2)C(=O)N(S(=O)(=O)c2ccc(OC)cn2)c2ccc(C#N)cc21 (single isomer, unassigned; (+)) [Example 141, (+)-5-Cyano-3-(2-ethoxy-5-methoxy-phenyl)-1-(5-methoxy-pyridine-2-sulfonyl)-3-[4-(1-methyl-piperidin-4-yl)-piperazin-1-yl]-2,3-dihydro-1H-indol-2-one]
3 | < 10 nM | CCOc1cc(OC)ccc1C1(N2CCC(N3CCNCC3)CC2)C(=O)N(S(=O)(=O)c2ccc(OC)cn2)c2ccc(C#N)cc21 (single isomer, unassigned; (+)) [Example 142, (+)-5-Cyano-3-(2-ethoxy-4-methoxy-phenyl)-1-(5-methoxy-pyridine-2-sulfonyl)-3-(4-piperazin-1-yl-piperidin-1-yl)-2,3-dihydro-1H-indol-2-one]
4 | < 10 nM | CCOc1ccc(OC)cc1C1(N2CCN(c3ccnc(C(C)C)c3)CC2)C(=O)N(S(=O)(=O)c2ccc(OC)cn2)c2ccc(C#N)cc21 (single isomer, unassigned; (+)) [Example 143, (+)-5-Cyano-3-(2-ethoxy-5-methoxy-phenyl)-3-[4-(2-isopropyl-pyridin-4-yl)-piperazin-1-yl]-1-(5-methoxy-pyridine-2-sulfonyl)-2,3-dihydro-1H-indol-2-one]
5 | < 10 nM | CCOc1nc(Cl)ccc1C1(N2CCN(c3ccnc(C)c3)CC2)C(=O)N(S(=O)(=O)c2ccc(OC)cn2)c2ccc(C#N)cc21 (single isomer, unassigned; (+)) [Example 151, (+)-5-Cyano-3-(6-chloro-2-ethoxy-pyridin-3-yl)-1-(5-methoxy-pyridine-2-sulfonyl)-3-[4-(2-methyl-pyridin-4-yl)-piperazin-1-yl]-2,3-dihydro-1H-indol-2-one]
6 | 10 to 50 nM | CCOc1ccc(OC)cc1C1(N2CCC(N3CCNCC3)CC2)C(=O)N(S(=O)(=O)c2ccc(OC)cn2)c2ccc(C#N)cc21 (single isomer, unassigned; (+)) [Example 156, (+)-5-Cyano-3-(2-ethoxy-5-methoxy-phenyl)-1-(5-methoxy-pyridine-2-sulfonyl)-3-(4-piperazin-1-yl-piperidin-1-yl)-2,3-dihydro-1H-indol-2-one]
7 | 10 to 50 nM | CCOc1ccc(OC)cc1C1(N2CCN(c3ccncc3)CC2)C(=O)N(S(=O)(=O)c2ccc(OC)c3cccnc23)c2ccc(C#N)cc21 (single isomer, unassigned; (+)) [Example 162, (+)-5-Cyano-3-(2-ethoxy-5-methoxy-phenyl)-1-(5-methoxy-quinoline-8-sulfonyl)-3-(4-pyridin-4-yl-piperazin-1-yl)-2,3-dihydro-1H-indol-2-one]
8 | < 10 nM | CCOc1ccc(OC)cc1C1(N2CCN(c3ccncc3)CC2)C(=O)N(S(=O)(=O)c2ccc(OC)cn2)c2ccc(C#N)cc21 (single isomer, unassigned; (+)) [Example 163, (+)-5-Cyano-3-(2-ethoxy-5-methoxy-phenyl)-1-(5-methoxy-pyridine-2-sulfonyl)-3-(4-pyridin-4-yl-piperazin-1-yl)-2,3-dihydro-1H-indol-2-one]
9 | < 10 nM | CCOc1ccc(OC)cc1C1(N2CCN(c3ccnc(C)c3)CC2)C(=O)N(S(=O)(=O)c2ccc(OC)cn2)c2ccc(C#N)cc21 (single isomer, unassigned; (+)) [Example 164, (+)-5-Cyano-3-(2-ethoxy-5-methoxy-phenyl)-1-(5-methoxy-pyridine-2-sulfonyl)-3-[4-(2-methyl-pyridin-4-yl)-piperazin-l-yl]-2,3-dihydro-1H-indol-2-one]
10 | < 10 nM | (±)-5-Cyano-3-(2-ethoxy-5-methoxyphenyl)-3-[4-(2-ethylpyridin-4-yl)piperazin-1-yl]-1-(quinoline-8-sulfonyl)-2,3-dihydro-1H-indol-2-one [Example 58]
11 | 10 to 50 nM | (±)-5-Cyano-3-(6-chloro-2-ethoxypyridin-3-yl)-1-(2,4-dimethoxybenzenesulfonyl)-3-[4-(2-methylpyridin-4-yl)piperazin-1-yl]-2,3-dihydro-1H-indol-2-one [Example 28]

Row | Molecule | Ki
12 | (+)-5-Cyano-3-(2-ethoxy-5-methoxy-phenyl)-1-(5-methoxy-pyridine-2-sulfonyl)-3-[4-(4-methyl-piperazin-1-yl)-piperidin-1-yl]-2,3-dihydro-1H-indol-2-one [Example 158] | < 10 nM
13 | (+)-5-Cyano-3-(6-chloro-2-ethoxy-pyridin-3-yl)-1-(5-methoxy-pyridine-2-sulfonyl)-3-[4-(2-methyl-pyridin-4-yl)-piperazin-1-yl]-2,3-dihydro-1H-indol-2-one [Example 152] | < 10 nM
